# Measured values as given in patent publication US20250275538A1, “COMPOSITIONS CONTAINING L-CARNITINE AND SEAWEED EXTRACT FOR MITIGATING ABIOTIC STRESS IN PLANTS” (ACADIAN SEAPLANTS LIMITED, priority 2022, published 2025).
# What was measured:
# Assay type in all cases: in vivo
# corn (cv. H140354) = assay: Corn drought stress controlled environment room trial (seed treatment); settings: 10 days after sowing
# Protocol: Corn seed (cv. H140354) was treated at a total application volume of 10 ml/kg with water (unstressed control and stressed control treatment groups), or an aqueous solution of Ascophyllum nodosum extract (ANE) at 2 ml/kg, or an aqueous solution of L-carnitine hydrochloride (CAR) at 0.3 g/kg, or a combinations of Ascophyllum nodosum extract at 2 ml/kg and 0.3 g/kg L-carnitine hydrochloride. Treated corn seed was sown in field soil inside cell packs set in greenhouse trays with 16 biological replicates per treatment group in a randomized complete block design. Three days after seeding, drought stress was imposed on all but the unstressed control treatment group through a 75% reduced irrigation regime relative to the full irrigation received by the unstressed control group, and assessments were made ten days after seeding.
# [1] = tested on: winter wheat (cv. Marius); assay: Wheat drought stress greenhouse trial (seed treatment); settings: ANE alone 1 ml/kg, CAR alone 0.3 g/kg; for plant vigour, Mean: 0-10 scale
# Protocol: Winter wheat seed (cv. Marius) was treated at a total application volume of 10 ml/kg with water (unstressed control and stressed control treatment groups), or an aqueous solution of Ascophyllum nodosum extract (ANE) at 1 ml/kg, or an aqueous solution of L-carnitine hydrochloride (CAR) at 0.3 g/kg, or combinations of Ascophyllum nodosum extract at 1 ml/kg with either 0.1, 0.2, 0.3, or 0.4 g/kg L-carnitine hydrochloride. Treated wheat seed was sown in soil in pots with 10 biological replicates per treatment group in a randomized complete block design. Four days after full emergence, drought stress was imposed on all but the unstressed control treatment group through a 50% reduced irrigation regime relative to the full irrigation received by the unstressed control group.
# [2] = tested on: Marula soybean (reference SEED-003); assay: Soybean subject to salinity stress (seed treatment), NPQt, shoot weight and synergy assessment; settings: 17 days after sowing, ANE alone 0.36 g
# Protocol: To supplement the observed evidence of efficacy, a synergy assessment was made. Synergy was calculated using two different methodologies, both of which find support in the literature: 1) Equation Ill from Colby, S. R. 1967. Calculating synergistic and antagonistic responses of herbicide combinations. Weed Science 15:20-22. and 2) Equation 2 from Huang, Z., and K. A. Falco. 2021. Synergy assessment for plant growth by independent joint action theory. HortScience 56(5):623-626. doi: 10.21273/HORTSC115731-21. A one-sample, two-tailed t-test was used to assess the statistical significance of the difference between the observed and predicted means. The same Seed Treatments solutions (Table 20) and trial protocol were used as in Example 6, but seeds were planted at 1.5″. To coat seeds, 0.3 mL of treatment solution was pipetted into a 500-mL glass beaker around the edges and 30 g of soybean seed was added. Marula soybean seed (reference SEED-003) from Prograin was used, without any other treatment. An estimate of NPQt was obtained using the MultispeQ™ (B-4003-AA) from PhotosynQ, according to manufaturer's directions. For the photosynthesis measuments a total of 12-14 plants per treatment were measured. For Example 7, parametric analysis of variance (ANOVA) was done using the aov function in the ggpubr package, and multiple comparison testing was done with the Tukey test (alpha=0.1) using the TukeyHSD function in the stats package in R. Shoot weight was evaluated to assess whether the positive effects observed in NPQt was reflected in more robust plant grown. Seven cell packs per treatment were measured for shoot weight.
# [3] = tested on: winter wheat (cv. Marius); assay: Wheat salinity stress greenhouse trial (seed treatment); settings: ANE alone 1 ml/kg, CAR alone 0.3 g/kg
# Protocol: Winter wheat seed (cv. Marius) was treated at a total application volume of 10 ml/kg with water (unstressed control and stressed control treatment groups), or an aqueous solution of Ascophyllum nodosum extract (ANE) at 1 ml/kg, or an aqueous solution of L-carnitine hydrochloride (CAR) at 0.3 g/kg, or combinations of Ascophyllum nodosum extract at 1 ml/kg with either 0.1, 0.2, 0.3, or 0.4 g/kg L-carnitine hydrochloride. Treated wheat seed was sown in pots containing soil with 10 biological replicates per treatment group in a randomized complete block design. Four days after full emergence, salinity stress was imposed on all but the unstressed control treatment group through irrigation with saline water (8 g/l NaCl) for the remainder of the trial. The unstressed control treatment group was irrigated with non-saline water.
# [4] = tested on: wheat (cultivar Skyfall, ref. SEED-0035); assay: Wheat subject to cold stress (seed treatment), NPQt and synergy assessment; settings: 10 days after sowing, ANE alone 0.36 g
# Protocol: Seed Treatment solutions were prepared per Table 20:
# 0.1 mL of treatment solution was pipetted into a 500-mL glass beaker around the edges and 10 g of wheat seed (cultivar Skyfall, ref. SEED-0035) was added. The beaker was swirled by hand for 1 min to coat the seeds, which were then swirled intermittently until dry, if needed.
# The trial was set up according to the following protocol: • 1. 32 8-0-6 cell packs were labelled with coloured stickers to denote five treatments with 4 cell packs for non-stress controls and 7 for the remaining 4 treatments. • 2. In a container 6 L of stored field soil and 600 mL water were mixed thoroughly. • 3. If soil was too dry, an additional 300 mL water, or an amount as appropriate, was added. • 4. […]
# An estimate of non-photochemical quenching (NPQt), which is the amount of incoming light that is regulated away from photosynthetic processes in order to reduce damage to the plant was obtained using the MultispeQ (B-4003-AA) from PhotosynQ, according to manufaturer's directions. For the photosynthesis measuments a total of 12-14 plants per treatment were measured. […]
# To supplement the observed evidence of efficacy, a synergy assessment was made. Synergy was calculated using two different methodologies, both of which find support in the literature: 1) Equation Ill from Colby, S. R. 1967. […]
# soybean (cv. Mungo) = assay: Soybean drought stress greenhouse trial (seed treatment); settings: 51 days after sowing, ANE alone 1 ml/kg, CAR alone 0.3 g/kg
# Protocol: Soybean seed (cv. Mungo) was treated at a total application volume of 10 ml/kg with water (unstressed control and stressed control treatment groups), or an aqueous solution of Ascophyllum nodosum extract (ANE) at 1 ml/kg, or an aqueous solution of L-carnitine hydrochloride (CAR) at 0.3 g/kg, or combinations of Ascophyllum nodosum extract at 1 ml/kg with either 0.1, 0.2, 0.3, or 0.4 g/kg L-carnitine hydrochloride. Treated soybean seed was sown in pots containing soil with 10 biological replicates per treatment group in a randomized complete block design. Four days after full emergence, drought stress was imposed on all but the unstressed control treatment group through a 50% reduced irrigation regime relative to the full irrigation received by the unstressed control group.
# [5] = drought stress (75% reduced irrigation), ANE alone 2 ml/kg, CAR alone 0.3 g/kg
# [6] = compared to stressed control, drought stress, ANE alone 2 ml/kg, CAR alone 0.3 g/kg
# [7] = 50 days after sowing, drought stress (50% reduced irrigation)
# [8] = compared to stressed control, 50 days after sowing, drought stress
# [9] = compared to stressed control, Carnitine alone 0.30 g
# [10] = drought stress (50% reduced irrigation)
# [11] = compared to stressed control, drought stress
compound,measurement,setting,value
"C[N+](C)(C)C[C@H](O)CC(=O)[O-].Cl [CAR, L-carnitine hydrochloride]","linear electron flow (LEF), Mean",corn (cv. H140354); [5],10.14
same,"photosynthetic efficiency (photosystem II efficiency, Phi2), Mean",corn (cv. H140354); [5],0.32
same,"root length, Mean",corn (cv. H140354); [5],263.3
same,"linear electron flow (LEF), Difference (%)",corn (cv. H140354); [6],−4.3%
same,"non-photochemical quenching (NPQt), Difference (%)",corn (cv. H140354); [6],−10.0%
same,"photosynthetic efficiency (Phi2), Difference (%)",corn (cv. H140354); [6],5.7%
same,"root length, Difference (%)",corn (cv. H140354); [6],16.4%
same,"non-photochemical quenching (NPQt), Mean","corn (cv. H140354); indicator of plant stress level, drought stress (75% reduced irrigation), ANE alone 2 ml/kg, CAR alone 0.3 g/kg",2.32
same,decrease in LEF,"corn (cv. H140354); stated as decrease vs stressed control, CAR at 0.3 g/kg, drought stress",4.3%
same,"plant vigour, Mean","[1]; 21 days after sowing, drought stress (50% reduced irrigation), combinations as labelled",7.60
same,"plant vigour, Mean","[1]; 42 days after sowing, drought stress (50% reduced irrigation)",8.35
same,"foliar fresh weight, Mean",[1]; [7],9.94
same,"root fresh weight, Mean",[1]; [7],3.66
same,"plant vigour, Difference (%)","[1]; compared to stressed control, 21 days after sowing, drought stress",7.0%
same,"plant vigour, Difference (%)","[1]; compared to stressed control, 42 days after sowing, drought stress",11.3%
same,"foliar fresh weight, Difference (%)",[1]; [8],9.9%
same,"root fresh weight, Difference (%)",[1]; [8],67.5%
same,"shoot weight (Shoot Fresh Weight), Mean",[2]; Carnitine alone 0.30 g,1.69
same,"non-photochemical quenching (NPQt), Mean",[2]; Carnitine alone 0.30 g (Table 20 solutions),0.76
same,"non-photochemical quenching (NPQt), Difference (%)",[2]; [9],−12.4%
same,"shoot weight, Difference (%)",[2]; [9],3.0%
same,"plant height, Mean","[3]; 22 days after sowing, salinity stress (irrigation with 8 g/l NaCl)",27.55
same,"relative chlorophyll content (SPAD), Mean","[3]; 29 days after sowing, salinity stress (8 g/l NaCl)",35.30
same,"plant height, Mean","[3]; 35 days after sowing, salinity stress (8 g/l NaCl)",37.39
same,"plant vigour, Mean","[3]; 43 days after sowing, salinity stress (8 g/l NaCl)",8.68
same,"fresh foliar biomass, Mean","[3]; 50 days after sowing, salinity stress (8 g/l NaCl)",10.6
same,"plant height, Difference (%)","[3]; compared to stressed control, 22 days after sowing, salinity stress",6.8%
same,"relative chlorophyll content (SPAD), Difference (%)","[3]; compared to stressed control, 29 days after sowing, salinity stress",17.1%
same,"plant height, Difference (%)","[3]; compared to stressed control, 35 days after sowing, salinity stress",17.2%
same,"plant vigour, Difference (%)","[3]; compared to stressed control, 43 days after sowing, salinity stress",9.9%
same,"fresh foliar biomass, Difference (%)","[3]; compared to stressed control, 50 days after sowing, salinity stress",29.3%
same,"non-photochemical quenching (NPQt), Mean","[4]; cold stress 13/8° C. day/night for 4 days, Carnitine alone 0.30 g (Table 20 solutions)",0.40
same,"non-photochemical quenching (NPQt), Difference (%)","[4]; compared to stressed control, cold stress, Carnitine alone 0.30 g",−4.8%
same,"foliar dry weight, Mean",soybean (cv. Mungo); [10],12.64
same,"foliar fresh weight, Mean",soybean (cv. Mungo); [10],49.1
same,"plant vigour, Mean",soybean (cv. Mungo); [10],9.4
same,"foliar dry weight, Difference (%)",soybean (cv. Mungo); [11],55.9%
same,"foliar fresh weight, Difference (%)",soybean (cv. Mungo); [11],24.9%
same,"plant vigour, Difference (%)",soybean (cv. Mungo); [11],23.7%
